{"source": "patent US20260224658A1", "about": "“PRODUCTS AND METHODS FOR THE DIAGNOSIS AND TREATMENT OF P[…]” (priority 2023, published 2026)", "format_in_all_cases": "cell-based, Pseudomonas aeruginosa", "key": {"MPAO1 [1]": {"tested_on": "MPAO1", "experiment": "In vitro adaptive evolution (serial passaging) with MIC determination", "settings": "for MIC: Pseudomonas aeruginosa", "method": "(§1) MICs were determined via microbroth dilution assay in 96-well culture plates with 2-fold serial dilutions of tested antibiotic in Mueller-Hinton (cation-adjusted) broth, inoculated with 50 μL of 2.75×10^5 CFU/mL of each bacterial strain and incubated at 37° C., 200 rpm for 24 hours. MIC experiments were performed using biological triplicates.\n(§2) Serial passaging of bacterial strains was performed in 96-well culture plates with 2-fold serial dilutions of antibiotic in MH broth, inoculated with 50 μL 2.75×10^5 CFU/mL of each strain and incubated at 37° C., 200 rpm for 24 hours. […] The bacteria were then serially passaged in the same antibiotic and MIC determined for all antibiotics (aztreonam, ciprofloxacin, D-CONGA, D-CONGA-Q7, polymyxin B). See Antimicrobial susceptibility testing section. The bacteria were serially passaged a total of 10 times.\n(§3) All resistance acquisition data was analyzed in units of fold-change to normalize for differences in starting MIC across strains. Fold-change in MIC data for all strains and treatment groups was natural log-transformed and simple linear regression was performed considering each replicate fold-change value as an individual point. Slope, standard error of slope, and total number of values of each treatment group of interest were analyzed via unpaired t-test (ΔmutS vs WT) or ordinary one-way ANOVA (cross-resistance acquisition of ΔmutS+AB vs −AB vs WT), and α-values were corrected for multiple comparisons using the Bonferroni method. Differences in estimated mutation rate across treatment groups were determined via ordinary one-way ANOVA (Brown-Forsythe test). For all statistical tests, p<0.05 was considered significant. All figures were created and statistical tests were done using GraphPad Prism 9.3.1."}, "MPAO1-ΔmutL [2]": {"tested_on": "MPAO1-ΔmutL", "experiment": "In vitro adaptive evolution (serial passaging) with MIC determination", "settings": "Pseudomonas aeruginosa", "method": "as §1, §2, §3"}, "MPAO1-ΔmutS [3]": {"tested_on": "MPAO1-ΔmutS", "experiment": "In vitro adaptive evolution (serial passaging) with MIC determination", "settings": "for MIC: Pseudomonas aeruginosa", "method": "as §1, §2, §3"}, "MPAO1 [4]": {"tested_on": "MPAO1", "experiment": "microbe, parasite or virus in culture", "settings": "Pseudomonas aeruginosa; strain MPAO1; read-out: MIC, average of triplicates", "method": "(§4) MIC experiments were performed using biological triplicates."}, "PAO1": {"tested_on": "PAO1", "experiment": "microbe, parasite or virus in culture", "settings": "Pseudomonas aeruginosa; strain PAO1; read-out: MIC, average of triplicates", "method": "as §4"}, "MPAO1-ΔmutL [5]": {"tested_on": "MPAO1-ΔmutL", "experiment": "MIC, microbroth dilution assay", "settings": "Pseudomonas aeruginosa, read-out: MIC, average of triplicates", "method": "as §4"}, "MPAO1-ΔmutS [6]": {"tested_on": "MPAO1-ΔmutS", "experiment": "MIC, microbroth dilution assay", "settings": "for MIC: Pseudomonas aeruginosa, read-out: MIC, average of triplicates", "method": "as §4"}}, "data": [{"compound": "C[C@H]1[C@H](NC(=O)/C(=N\\OC(C)(C)C(=O)O)c2csc(N)n2)C(=O)N1S(=O)(=O)O", "note": "[Aztreonam]", "values": [{"measurement": "MIC", "setting": "MPAO1 [1]; read-out: Average MIC at end point, MPAO1 evolved in AZ", "value": 8, "unit": "µg/mL"}, {"measurement": "MIC", "setting": "MPAO1 [1]; read-out: Average MIC at end point, MPAO1 evolved in AZ + COL", "value": 19, "unit": "µg/mL"}, {"measurement": "MIC", "setting": "MPAO1 [1]; read-out: Average MIC at end point, MPAO1 evolved in AZ + D-CONGA", "value": 11, "unit": "µg/mL"}, {"measurement": "MIC", "setting": "MPAO1 [1]; read-out: Average MIC at end point, MPAO1 evolved in AZ + D-CONGA-Q7", "value": 4, "unit": "µg/mL"}, {"measurement": "MIC", "setting": "MPAO1 [1]; read-out: Average MIC at end point, MPAO1 evolved in Chl + Str", "value": 3, "unit": "µg/mL"}, {"measurement": "MIC", "setting": "MPAO1 [1]; read-out: Average MIC at end point, MPAO1 evolved in D-CONGA", "value": 7, "unit": "µg/mL"}, {"measurement": "MIC", "setting": "MPAO1 [1]; read-out: Average MIC at end point, MPAO1 evolved in D-CONGA-Q7", "value": 7, "unit": "µg/mL"}, {"measurement": "MIC", "setting": "MPAO1 [1]; read-out: Average MIC at end point, MPAO1 passaged with No Antibiotic (Table 4)", "value": 3, "unit": "µg/mL"}, {"measurement": "MIC", "setting": "MPAO1 [1]; read-out: Average MIC at end point, MPAO1 passaged with No Antibiotic (Table 8)", "value": 4, "unit": "µg/mL"}, {"measurement": "MIC", "setting": "MPAO1-ΔmutL [2]; read-out: Average MIC at end point, MPAO1-ΔmutL evolved in Chl + Str", "value": 32, "unit": "µg/mL"}, {"measurement": "MIC", "setting": "MPAO1-ΔmutL [2]; read-out: Average MIC at end point, MPAO1-ΔmutL passaged with No Antibiotic", "value": 11, "unit": "µg/mL"}, {"measurement": "MIC", "setting": "MPAO1-ΔmutS [3]; read-out: Average MIC at end point, MPAO1-ΔmutS evolved in AZ", "value": 107, "unit": "µg/mL"}, {"measurement": "MIC", "setting": "MPAO1-ΔmutS [3]; read-out: Average MIC at end point, MPAO1-ΔmutS evolved in AZ + COL", "value": 16, "unit": "µg/mL"}, {"measurement": "MIC", "setting": "MPAO1-ΔmutS [3]; read-out: Average MIC at end point, MPAO1-ΔmutS evolved in AZ + D-CONGA", "value": 18, "unit": "µg/mL"}, {"measurement": "MIC", "setting": "MPAO1-ΔmutS [3]; read-out: Average MIC at end point, MPAO1-ΔmutS evolved in AZ + D-CONGA-Q7", "value": 16, "unit": "µg/mL"}, {"measurement": "MIC", "setting": "MPAO1-ΔmutS [3]; read-out: Average MIC at end point, MPAO1-ΔmutS evolved in Chl", "value": 32, "unit": "µg/mL"}, {"measurement": "MIC", "setting": "MPAO1-ΔmutS [3]; read-out: Average MIC at end point, MPAO1-ΔmutS evolved in D-CONGA", "value": 16, "unit": "µg/mL"}, {"measurement": "MIC", "setting": "MPAO1-ΔmutS [3]; read-out: Average MIC at end point, MPAO1-ΔmutS evolved in D-CONGA-Q7", "value": 4, "unit": "µg/mL"}, {"measurement": "MIC", "setting": "MPAO1-ΔmutS [3]; read-out: Average MIC at end point, MPAO1-ΔmutS passaged with No Antibiotic (Table 4)", "value": 8, "unit": "µg/mL"}, {"measurement": "MIC", "setting": "MPAO1-ΔmutS [3]; read-out: Average MIC at end point, MPAO1-ΔmutS passaged with No Antibiotic (Table 8)", "value": 5, "unit": "µg/mL"}, {"measurement": "MIC", "setting": "MPAO1 [4]", "value": 2, "unit": "µg/mL"}, {"measurement": "MIC", "setting": "PAO1", "value": 3, "unit": "µg/mL"}, {"measurement": "MIC", "setting": "MPAO1-ΔmutL [5]", "value": 30, "unit": "µg/mL"}, {"measurement": "MIC", "setting": "MPAO1-ΔmutS [6]", "value": 13, "unit": "µg/mL"}]}, {"compound": "O=C(N[C@H](CO)[C@H](O)c1ccc([N+](=O)[O-])cc1)C(Cl)Cl", "note": "[Chloramphenicol]", "values": [{"measurement": "cross-resistance induced by treatment", "setting": "MPAO1 [1]; antibiotic-treated wild type MPAO1", "value": "no cross resistance developed"}, {"measurement": "cross-resistance to antibiotics induced by treatment", "setting": "MPAO1-ΔmutS [3]; MPAO1-ΔmutS evolved in the named drug", "value": "induced cross-resistance to antibiotics in a different class such as ciprofloxacin"}, {"measurement": "MIC", "setting": "MPAO1 [4]", "value": "≥ 400", "unit": "µg/mL"}, {"measurement": "MIC", "setting": "PAO1", "value": 400, "unit": "µg/mL"}, {"measurement": "MIC", "setting": "MPAO1-ΔmutL [5]", "value": 400, "unit": "µg/mL"}, {"measurement": "MIC", "setting": "MPAO1-ΔmutS [6]", "value": "≥ 400", "unit": "µg/mL"}, {"measurement": "susceptibility of the strains before evolution (summary of Table 3)", "setting": "MPAO1-ΔmutS [6]; wild type and mutS-deficient MPAO1", "value": "anticipated intrinsic resistance"}]}]}
